Read-outs that look alike come from different tables or passages of the source.
Key:
[1] = system: bacterial cells expressing an adenine DNA methyltransferase; format: cell-based
Bacillus subtilis = test: microbe, parasite or virus in culture; format: cell-based
[2] = system: Agrobacterium tumefaciens; format: cell-based; conditions: read-out: IC50, cell growth inhibition
Helicobacter pylori = format: cell-based; conditions: read-out: IC50, cell growth inhibition
Caulobacter cresentus = test: microbe, parasite or virus in culture; format: cell-based
[3] = molecular target: dcm methyltransferase (HhaI) (Haemophilus parahaemolyticus, UniProt P05102); format: biochemical, Hemophilus hemolyticus; conditions: at 500 μM
dam methylase (E. coli) = dam methylase (E. coli) (Escherichia coli, UniProt P0AEE8); format: biochemical; conditions: at 100 μM
[4] = molecular target: adenine DNA methyltransferase (Caulobacter vibrioides (Caulobacter crescentus), UniProt P0CAW2); format: biochemical
[5] = read-out: IC50, cell growth inhibition
[6] = Bacillus subtilis, read-out: IC50, Bacillus subtilis
[7] = Caulobacter, read-out: IC50, Caulobacter cresentus

Sequence of dcm methyltransferase (HhaI) (P05102 whole entry): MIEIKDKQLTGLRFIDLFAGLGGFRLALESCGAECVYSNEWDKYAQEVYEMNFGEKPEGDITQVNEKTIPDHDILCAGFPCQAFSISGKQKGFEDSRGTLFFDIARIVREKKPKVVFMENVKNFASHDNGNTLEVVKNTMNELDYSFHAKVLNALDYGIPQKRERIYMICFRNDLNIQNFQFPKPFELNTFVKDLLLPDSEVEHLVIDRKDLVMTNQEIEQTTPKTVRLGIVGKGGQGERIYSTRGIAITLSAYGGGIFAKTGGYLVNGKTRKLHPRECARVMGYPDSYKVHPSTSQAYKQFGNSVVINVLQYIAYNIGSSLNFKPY
Sequence of dam methylase (E. coli) (P0AEE8 whole entry): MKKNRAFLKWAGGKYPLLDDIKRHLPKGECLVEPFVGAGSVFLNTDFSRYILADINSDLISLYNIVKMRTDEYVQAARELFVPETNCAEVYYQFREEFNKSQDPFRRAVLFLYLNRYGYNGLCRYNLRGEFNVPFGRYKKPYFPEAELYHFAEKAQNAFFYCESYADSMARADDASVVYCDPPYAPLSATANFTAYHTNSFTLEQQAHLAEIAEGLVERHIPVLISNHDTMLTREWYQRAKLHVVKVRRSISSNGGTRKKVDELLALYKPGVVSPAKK
Sequence of adenine DNA methyltransferase (P0CAW2 whole entry): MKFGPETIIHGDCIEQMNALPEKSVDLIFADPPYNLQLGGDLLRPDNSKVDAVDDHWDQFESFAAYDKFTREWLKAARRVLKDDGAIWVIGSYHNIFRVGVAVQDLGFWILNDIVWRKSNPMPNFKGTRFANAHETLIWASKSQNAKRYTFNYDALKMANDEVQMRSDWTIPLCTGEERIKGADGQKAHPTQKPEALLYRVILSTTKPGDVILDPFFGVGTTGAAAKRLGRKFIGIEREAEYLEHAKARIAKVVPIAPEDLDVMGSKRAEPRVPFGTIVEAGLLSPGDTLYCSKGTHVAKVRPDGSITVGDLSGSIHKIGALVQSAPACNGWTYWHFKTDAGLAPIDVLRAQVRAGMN

Molecule	IC50 (Bacillus subtilis; [5])	IC50 [2]	IC50 (Helicobacter pylori)	IC50 (Caulobacter cresentus; [5])	inhibition of dcm methyltransferase (HhaI) [3]	inhibition of dam methylase (E. coli) (dam methylase (E. coli))	IC50 (Bacillus subtilis; [6])	IC50 (Caulobacter cresentus; [7])	further results
c1ccc(B(OCCNc2ncnc3[nH]cnc23)c2ccccc2)cc1	–	–	–	–	–	–	–	–	concentration that inhibits cell growth [1]: < 50 µM
6-N-(diphenylborinic ester)-ethyl-9-(2-(2-(2-hydroxyethoxy)ethoxy)ethyl)-adenine [Compound 3d]	10 to 50 µM	< 25 µM	25 to 100 µM	< 25 µM	No inhibition at all	Complete inhibition	–	–	–
6-N-(diphenylborinic ester)-ethyl-9-(2-(4-morpholinyl)-ethyl)-adenine [Compound 3b]	1 to 10 µM	25 µM	< 25 µM	< 25 µM	No inhibition at all	Complete inhibition	–	–	–
6-N-(diphenylborinic ester)-ethyl-9-(3-(N-phthaloyl)-aminopropyl)-adenine [Compound 3c]	1 to 10 µM	25 µM	25 to 100 µM	< 25 µM	No inhibition at all	Complete inhibition	–	–	–
6-N-(diphenylborinic ester)-ethyl-9-(ethyl-2-acrylate)-methyl-adenine [Compound 3e]	–	< 25 µM	25 µM	< 25 µM	No inhibition at all	Complete inhibition	–	–	–
6-N-(diphenylborinic ester)-ethyl-adenine [Compound 3a]	10 to 50 µM	> 100 µM	< 25 µM	< 25 µM	No inhibition at all	Complete inhibition	–	–	–
Fc1ccc([B-]2(c3ccc(F)cc3)Oc3cccc4ccc[n+]2c34)cc1 [(1), di-(p-fluorophenyl)borinic acid 8-hydroxyquiniline ester]	–	–	–	–	–	–	14 µM	23 µM	–
Clc1ccc([B-]2(c3ccc(Cl)cc3)Oc3cccc4ccc[n+]2c34)cc1 [(2), di-(p-chlorophenyl)borinic acid 8-hydroxyquiniline ester]	–	–	–	–	–	–	7 µM	16 µM	–
c1ccc([B-]2(c3ccccc3)Oc3cccc4ccc[n+]2c34)cc1 [(3), diphenylborinic acid 8-hydroxyquiniline ester]	–	–	–	–	–	–	–	> 100 µM	–
Fc1ccc([B-]2(c3ccc(F)cc3)[NH2+]CCO2)cc1 [(4), di-(p-fluorophenyl)borinic acid ethanolamine ester]	–	–	–	–	–	–	34 µM	85 µM	–
Clc1ccc([B-]2(c3ccc(Cl)cc3)[NH2+]CCO2)cc1 [(5), di-(p-chlorophenyl)borinic acid ethanolamine ester]	–	–	–	–	–	–	32 µM	17 µM	–
NCCNc1ncnc2[nH]cnc12 [compound (8)]	–	–	–	–	–	–	–	–	inhibitory activity [4]: relatively low (mM range)

Reference: patent publication US20040259833A1 (priority 1999, published 2004)
